Measurements reported in patent US20160243059A1 (UNIST Academy-Industry Research Corporation, priority 2015, published 2016).
“Also recorded” adds a separate entry of the source.

Tests used:
[1] = target: T1, Aβ40 (Homo sapiens, UniProt P05067); test: Mass spectrometry and IM-MS of Aβ40-ligand complexes; format: binding
T1 construct: Aβ40 and Aβ42 were purchased from AnaSpec (Fremont, Calif., USA); purchased AnaSpec
Protocol: The resulting solutions were allowed to react for 0, 2, 4, 8, and 24 hours at a temperature of 37° C. The samples were directly injected into the mass spectrometer at a flow rate of […]. ESI interface was operated in positive-ion mode; spray voltage was set at 4.5 kV with capillary temperature at 300° C. and capillary exit voltage at 101 V. Mass spectra were taken in the range of m/z 50 to 500.
All ion mobility-mass spectrometry (IM-MS) experiments were carried out on a Synapt G2 (Waters, Milford, Mass., USA). Samples were ionized using a nano-electrospray source operated in positive ion mode. MS instrumentation was operated at a backing pressure of 2.7 mbar and a sample cone voltage of 40 V. Data were analyzed using MassLynx 4.1 and DriftScope 2.0 (Waters, Milford, Mass., USA). Collision cross-section (CCS) measurements were calibrated externally using a database of known protein, and protein complex CCS values in helium. Lyophilized Aβ40 peptides (AnaSpec, Fremont, Calif., USA) were prepared to a stock concentration of 25 μM in 1 mM ammonium acetate (pH 7.0). […] After the reaction, all samples were lyophilized overnight prior to re-suspension of the samples in hexafluoro-2-propanol (HFIP, Sigma-Aldrich, St Louis, Mo., USA)([Aβ40]=50 μM) and sonicated under pulse settings for 5 minutes. The samples were diluted 50%, to a final Aβ40 concentration of 25 μM, using 1 mM ammonium acetate (0.5 mM final concentration) immediately prior to mass analysis.

[2] = test system: Aβ40/Aβ42; test: Inhibition of formation of Aβ aggregation (gel electrophoresis/Western blot, TEM); format: biochemical
Protocol: Aβ40 or Aβ42 was dissolved in ammonium hydroxide (NH4OH, 1% v/v aq), and then, aliquoted, lyophilized overnight, and stored at a temperature of −80° C. For experiments described herein, a stock solution of Aβ was prepared by dissolving lyophilized peptide in 1% NH4OH (10 μL) and diluted with deionized distilled water (ddH2O).
The concentration of Aβ peptides in the solution was determined by measuring the absorbance of the solution at 280 nm (E=1450 M^−1 cm^−1 for Aβ40; and ε=1490 M^−1 cm^−1 for Aβ42).
(§1) The peptide stock solution was diluted to a final concentration of 25 μM in Chelex-treated buffered solution containing [4-(2-hydroxyethyl)-1-piperazine ethane sulfonic acid; […]; pH 6.6 for Cu(II) samples; pH 7.4 for metal-free and Zn(II) samples] (HEPES) and NaCl ([…]).
(§2) The samples from studies on the inhibition of formation of Aβ aggregation and the breakdown of Aβ aggregation were analyzed by gel electrophoresis with Western blotting using an anti-Aβ antibody (6E10).
Each sample (10 μL) was separated on a 10-20% Tris-tricine gel (Invitrogen, Grand island, NY, USA), and the protein samples obtained therefrom were transferred onto a nitrocellulose membrane which was blocked with bovine serum albumin (BSA, 3% w/v, Sigma-Aldrich, St. Louis, Mo., USA) in Tris-buffered saline containing 0.1% Tween-20 (TBS-T; 1.00 mM Tris base, pH 8.0, 1.50 mM NaCl) at room temperature for 2 hours. […]

[3] = target: T2, Aβ40/Aβ42 aggregates (Homo sapiens, UniProt P05067); test: Breakdown of preformed Aβ aggregation (gel electrophoresis/Western blot, TEM); format: biochemical; settings: regardless of presence or absence of metals
T2 construct: Aβ40 and Aβ42 were purchased from AnaSpec (Fremont, Calif., USA); purchased AnaSpec
Protocol: as §1, §2
(§3) Each sample (10 μL) was separated on a 10-20% Tris-tricine gel (Invitrogen, Grand island, NY, USA), and the protein samples obtained therefrom were transferred onto a nitrocellulose membrane which was blocked with bovine serum albumin (BSA, 3% w/v, Sigma-Aldrich, St. Louis, Mo., USA) in Tris-buffered saline containing 0.1% Tween-20 (TBS-T; 1.00 mM Tris base, pH 8.0, 1.50 mM NaCl) at room temperature for 2 hours.
(§4) Afterwards, the membranes were incubated with a primary antibody (6E10, Covance, Princeton, N.J., USA; 1:2000) in a solution of 2% w/v BSA (in TBS-T) overnight at 4° C. After washing with TBS-T (three times, each for 10 minutes), the horseradish peroxidase-conjugated goat antimouse secondary antibody (1:5000; Cayman Chemical Company, Ann Arbor, Mich., USA) in 2% w/v BSA (in TBS-T) was added for 1 hour at room temperature. […]

[4] = test system: Aβ40/Aβ42 aggregates; test: as above; format: biochemical; settings: Aβ preincubated 24 hours at 37° C., then DMPD 50 μM
Protocol: as §1, §2, §3, §4

[5] = test system: SK-N-BE(2)-M17 (M17) cell line; test: Cell viability (MTT) of Aβ40- or metal-Aβ40-treated M17 cells; format: cell-based, human; settings: Aβ:metal:ligand 10:10:20 μM, 24 hours, relative to the untreated cells
Protocol: The human neuroblastoma, i.e., SK-N-BE(2)-M17 (M17) cell line, was purchased from the American Type Culture Collection (ATCC, Manassas, Va., USA).
The cell line was maintained in media containing Minimum Essential Media (MEM; GIBCO, Life Technologies, Grand Island, N.Y., USA) and Ham's F12K Kaighn's Modification Media (F12K; GIBCO) at a ratio of 1:1, 10% (v/v) fetal bovine serum (FBS; Atlanta Biologicals, Flowery Branch, Ga., USA), 100 U/mL penicillin (GIBCO), and […] streptomycin (GIBCO). The cells were grown and maintained at a temperature of 37° C. in a humidified atmosphere with 5% CO2.
After completing the incubation at a temperature of 37° C. for 24 hours, 25 μL of [3-(4,5-dimethylthiazol-2-yl)-2,5-diphenyltetrazolium bromide; 5 mg/mL in phosphate buffered saline (PBS), pH7.4, GIBCO] (MTT) was added to each well, and then, the plates were incubated at a temperature of 37° C. for 4 hours.
Formazan produced by the cells was dissolved in a solution containing N,N-dimethylformamide (DMF, 50% v/v aq, pH 4.5) and sodium dodecyl sulfate (SDS, 20% w/v) overnight at room temperature. Subsequently, absorbance at 600 nm was measured on a microplate reader.

[6] = target: T1, Aβ40; test: Isothermal titration calorimetry (ITC); format: binding
Protocol: The ligand solution (10 μL) was titrated into the Aβ40 solution (1.4 mL) at 25° C. over 1 second with 25 injections with a constant interval of […] a 250 μL syringe rotating at 310 rpm. In a control experiment, the identical titrant solution was injected into the same buffer used with Aβ40 to measure the heat of dilution.
A reasonable heat of binding value was calculated by subtracting the heat of dilution value from the overall heat change. Titration data were analyzed with the MicroCal Origin (v. 7.0). The values of Ka (association constant) and […] each ligand upon binding to Aβ40 was determined from a proper fitting model. The binding curves were best fit to a sequential binding model with three binding sites. The values of −TΔS and ΔG were calculated from the Gibb's free energy relationship [(ΔG=ΔH−TΔS; ΔG=−RT ln(Ka)].

[7] = target: T3, Cu(II)-loaded Aβ42 fibrils (Homo sapiens, UniProt P05067); test: Cu K-edge X-ray absorption spectroscopy; settings: DMPD 2 equivalents, 24 hours, anaerobic
T3 construct: Aβ40 and Aβ42 were purchased from AnaSpec (Fremont, Calif., USA); purchased AnaSpec
Protocol: Aβ42 was monomerized according to the methods previously described (Biochemistry 44, 5478-5487, 2005; J. Am. Chem. Soc. 126, 13534-13538, 2004), and fibrils of Aβ42 were grown according to protocols known in the art (Biochemistry, 47, 5006-5016, 2008). Following monomerizatino of fibrillization, all samples were treated under an anaerobic atmosphere (N2) in a COY anaerobic chamber (COY Laboratory, Grass Lake, Mich., USA).
Aβ42 was dissolved in a mixture of 10 mM of N-ethylmorpholine buffer (pH 7.4) and glycerol (used as a deicing agent) that were mixed at a ratio of 4:1, and then, an equivalent amount of CuCl2 was added thereto. Aβ42 monomers were maintained at 5° C., and all procedures performed rapidly to avoid aggregation. […]
Following the reaction with DMPD, the solutions were injected into Lucite sample holders with Kapton tape windows, and then, quickly frozen in liquid nitrogen. All data were recorded on beamline X-3b at the National Synchrotron Light Source (Brookhaven National Laboratories, Upton, N.Y., USA). […]
Data were collected as fluorescence spectra using a Canberra 31 element Ge solid-state detector with a 3 micron Ni filter placed between the sample and detector, and calibrated against a simultaneously collected spectrum of Cu-foil (first inflection point 8980.3 eV). […]

[8] = test system: Aβ40; test: Cerebral Aβ40 by ELISA in 5×FAD mice; format: in vivo, mouse; settings: 1 mg/kg/day intraperitoneal, 30 days
Excerpt: (§5) 5×FAD mice were selected for this study since they develop early and severe phenotypes of AD and behavioral dysfunction.
(§6) Cerebral Aβ peptides were quantified by the enzyme-linked immunosorbent assay (ELISA).

[9] = test system: Aβ42; test: Cerebral Aβ42 by ELISA in 5×FAD mice; format: in vivo, mouse; settings: 1 mg/kg/day intraperitoneal, 30 days
Excerpt: as §5, §6

[10] = test system: amyloid plaques; test: Histopathological evaluation of amyloid deposition load in 5×FAD mice; format: in vivo, mouse; settings: 1 mg/kg/day intraperitoneal, 30 days
Excerpt: as §5

[11] = test system: 5×FAD mice; test: Morris water maze test in 5×FAD mice; format: in vivo, mouse
Protocol: Three hours after the final Morris water maze test, to confirm the performance of long-term memory retention, the probe trials, where the escape platform was removed, was carried out, and the mice located its previous position in the water for 60 seconds.

[12] = Gross appearance and body weight of 5×FAD mice; format: in vivo, mouse; settings: at conclusion of 30-day treatment, 1 mg/kg/day intraperitoneal
Excerpt: as §5

[13] = sequential binding model, three sites, 25° C., pH 7.4
[14] = probe trial 60 seconds, three hours after final test, vs vehicle-treated 5×FAD mice

T1 sequence (P05067 672-711 limits assumed): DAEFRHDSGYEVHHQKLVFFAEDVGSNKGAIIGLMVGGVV
T2 sequence (P05067 672-713): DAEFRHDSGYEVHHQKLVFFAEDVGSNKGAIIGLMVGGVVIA
T3 sequence (P05067 672-713 limits assumed): as the sequence (P05067 672-713) above

Structure (SMILES): O=C1C=CC(=O)C=C1 [BQ, benzoquinone]
- binding to Aβ40 (MS) ([1]; identical conditions as DMPD): binds to Aβ40
- mass added to Aβ40 on ligand treatment (mass shift) ([1]; ligand 50 μM, Aβ40 25 μM, 24 hours): 104.1±0.1 Da

Structure (SMILES): CN(C)c1ccc(N)cc1 [DMPD, N,N-dimethyl-p-phenylenediamine]
- effect on formation of metal-free or metal-induced Aβ aggregates ([2]; DMPD 50 μM, Aβ 25 μM, with or without CuCl2/ZnCl2 25 μM, 37° C., 24 hours, aerobic): inhibited the formation of Aβ aggregates
- modulation of Aβ aggregation under anaerobic condition ([2]; anaerobic condition): not observed
- reactivity toward Aβ42 aggregates [3]: less reactivity toward Aβ42 aggregates
- transformation of preformed metal-free and metal-Aβ40/Aβ42 aggregates [4]: significant effects on the transformation; also recorded: modified the formed Aβ aggregates to relatively smaller and less structured Aβ aggregates
- increase of viability [5]: 10-20%
- TΔS1 ([6]; calculated, ΔG=ΔH−TΔS): 28.5 ± 0.84 kJ/mol
- TΔS2 ([6]; calculated, ΔG=ΔH−TΔS): 31.3 ± 0.37 kJ/mol
- TΔS3 ([6]; calculated, ΔG=ΔH−TΔS): -8.90 ± 0.65 kJ/mol
- ΔG1 ([6]; calculated, ΔG=−RT ln(Ka)): -31.1 ± 0.77 kJ/mol
- ΔG2 ([6]; calculated, ΔG=−RT ln(Ka)): -26.5 ± 0.16 kJ/mol
- ΔH1 ([6]; sequential binding model, site 1): -2.63 ± 0.35 kJ/mol
- ΔH2 ([6]; sequential binding model, site 2): 4.79 ± 3.35 kJ/mol
- ΔH3 ([6]; sequential binding model, site 3): -35.0 ± 6.37 kJ/mol
- Ka1 [6, 13]: 2.85 ± 0.88 × 10^5 M^−1
- Ka2 [6, 13]: 4.34 ± 2.88 × 10^4 M^−1
- Ka3 [6, 13]: 3.73 ± 2.22 × 10^4 M^−1
- effect on Cu(II) in Cu(II)-loaded Aβ42 fibrils [7]: complete reduction of Cu(II)
- ion mobility arrival time of Aβ40 complex versus apo state ([1]; IM-MS, 4+ charge state): significantly decreased
- reduction of FA-soluble Aβ40 [8]: ca. 50%
- reduction of SDS-soluble Aβ40 [8]: ca. 68%
- decrease of total level of Aβ40 (PBS-, SDS- and FA-soluble) ([8]; vs vehicle-treated): ca. 65%
- reduction of FA-soluble Aβ42 [9]: ~32%
- reduction of SDS-soluble Aβ42 [9]: ~67%
- decrease of total level of Aβ42 (PBS-, SDS- and FA-soluble) ([9]; vs vehicle-treated): ~47%
- reduction of load of APP/Aβ-immunoreactive 4G8-stained amyloid plaques [10]: ca. 23%
- reduction of load of Congo red-stained amyloid plaques [10]: ~20%
- spatial learning and memory capability ([11]; final five days of DMPD treatment, hidden platform): prominently improved
- time in the target quadrant (NW) in probe trial [11, 14]: significantly more time
- time to reach the platform area in probe trial [11, 14]: distinguishably less time
- gross appearance or body weight versus vehicle-treated mice [12]: no significant difference
